Data as given in publication PMC4910395 (Bioorganic & medicinal chemistry, 2015).
Counter-ions that a name gives are not always drawn. Like-named read-outs stand apart in the source and are kept apart here.

Tests used:
[1] = molecular target: T1, NMDA receptor (NR), [^3H]ifenprodil binding site (Rattus norvegicus, UniProt P35439+Q00960); details: pH 7.4
[2] = molecular target: NMDA receptor (NR), channel binding site labeled with [^3H]MK-801 (Rattus norvegicus, UniProt P35439+Q00959+Q00960); experiment: Inhibition of [^3H]MK-801 binding to rat cortical membranes; details: for [^3H]MK-801 Ratio IC50 (30 µM spm)/IC50 (no spm): mean ratio, spermine sensitivity; for IC50: in presence of 30 µM spermine
Chain of NMDA receptor (NR), channel binding site labeled with [^3H]MK-801 (Q00959 23-1464, other chains not shown): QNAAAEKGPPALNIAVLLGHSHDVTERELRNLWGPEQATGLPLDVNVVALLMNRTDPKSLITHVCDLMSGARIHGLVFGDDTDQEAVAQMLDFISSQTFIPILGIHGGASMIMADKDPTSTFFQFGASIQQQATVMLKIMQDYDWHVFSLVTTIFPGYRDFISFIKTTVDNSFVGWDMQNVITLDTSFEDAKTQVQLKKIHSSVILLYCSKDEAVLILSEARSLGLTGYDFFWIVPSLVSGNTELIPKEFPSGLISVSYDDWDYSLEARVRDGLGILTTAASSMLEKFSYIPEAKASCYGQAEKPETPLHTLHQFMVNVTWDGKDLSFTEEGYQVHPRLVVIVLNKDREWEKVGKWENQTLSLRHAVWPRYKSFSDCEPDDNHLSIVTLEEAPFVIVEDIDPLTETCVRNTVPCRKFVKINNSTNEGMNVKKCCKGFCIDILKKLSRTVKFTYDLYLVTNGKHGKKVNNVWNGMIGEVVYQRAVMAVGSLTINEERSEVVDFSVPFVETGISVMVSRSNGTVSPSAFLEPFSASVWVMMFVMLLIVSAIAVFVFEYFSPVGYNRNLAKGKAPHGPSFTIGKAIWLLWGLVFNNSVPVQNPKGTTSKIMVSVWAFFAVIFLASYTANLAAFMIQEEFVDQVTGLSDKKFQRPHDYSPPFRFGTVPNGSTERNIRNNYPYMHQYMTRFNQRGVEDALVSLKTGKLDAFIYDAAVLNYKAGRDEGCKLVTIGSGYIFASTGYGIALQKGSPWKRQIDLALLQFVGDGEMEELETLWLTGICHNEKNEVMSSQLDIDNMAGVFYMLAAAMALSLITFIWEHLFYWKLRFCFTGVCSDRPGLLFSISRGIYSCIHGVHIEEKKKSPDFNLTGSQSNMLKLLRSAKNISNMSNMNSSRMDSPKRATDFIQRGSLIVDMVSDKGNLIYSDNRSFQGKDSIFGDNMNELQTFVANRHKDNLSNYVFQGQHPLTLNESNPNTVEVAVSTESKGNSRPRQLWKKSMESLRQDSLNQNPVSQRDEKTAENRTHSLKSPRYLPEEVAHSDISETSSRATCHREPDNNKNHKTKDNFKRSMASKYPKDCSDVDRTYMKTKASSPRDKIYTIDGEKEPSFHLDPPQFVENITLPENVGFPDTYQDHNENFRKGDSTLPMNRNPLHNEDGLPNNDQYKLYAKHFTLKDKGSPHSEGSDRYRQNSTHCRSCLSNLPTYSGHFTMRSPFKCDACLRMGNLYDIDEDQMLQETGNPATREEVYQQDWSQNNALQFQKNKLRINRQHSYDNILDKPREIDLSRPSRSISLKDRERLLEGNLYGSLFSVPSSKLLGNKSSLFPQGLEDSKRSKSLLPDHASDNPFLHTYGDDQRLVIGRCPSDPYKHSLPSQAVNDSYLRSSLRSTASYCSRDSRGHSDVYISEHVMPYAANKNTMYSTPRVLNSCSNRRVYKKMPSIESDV
Chain of NMDA receptor (NR), channel binding site labeled with [^3H]MK-801 (Q00960 27-1482, other chains not shown): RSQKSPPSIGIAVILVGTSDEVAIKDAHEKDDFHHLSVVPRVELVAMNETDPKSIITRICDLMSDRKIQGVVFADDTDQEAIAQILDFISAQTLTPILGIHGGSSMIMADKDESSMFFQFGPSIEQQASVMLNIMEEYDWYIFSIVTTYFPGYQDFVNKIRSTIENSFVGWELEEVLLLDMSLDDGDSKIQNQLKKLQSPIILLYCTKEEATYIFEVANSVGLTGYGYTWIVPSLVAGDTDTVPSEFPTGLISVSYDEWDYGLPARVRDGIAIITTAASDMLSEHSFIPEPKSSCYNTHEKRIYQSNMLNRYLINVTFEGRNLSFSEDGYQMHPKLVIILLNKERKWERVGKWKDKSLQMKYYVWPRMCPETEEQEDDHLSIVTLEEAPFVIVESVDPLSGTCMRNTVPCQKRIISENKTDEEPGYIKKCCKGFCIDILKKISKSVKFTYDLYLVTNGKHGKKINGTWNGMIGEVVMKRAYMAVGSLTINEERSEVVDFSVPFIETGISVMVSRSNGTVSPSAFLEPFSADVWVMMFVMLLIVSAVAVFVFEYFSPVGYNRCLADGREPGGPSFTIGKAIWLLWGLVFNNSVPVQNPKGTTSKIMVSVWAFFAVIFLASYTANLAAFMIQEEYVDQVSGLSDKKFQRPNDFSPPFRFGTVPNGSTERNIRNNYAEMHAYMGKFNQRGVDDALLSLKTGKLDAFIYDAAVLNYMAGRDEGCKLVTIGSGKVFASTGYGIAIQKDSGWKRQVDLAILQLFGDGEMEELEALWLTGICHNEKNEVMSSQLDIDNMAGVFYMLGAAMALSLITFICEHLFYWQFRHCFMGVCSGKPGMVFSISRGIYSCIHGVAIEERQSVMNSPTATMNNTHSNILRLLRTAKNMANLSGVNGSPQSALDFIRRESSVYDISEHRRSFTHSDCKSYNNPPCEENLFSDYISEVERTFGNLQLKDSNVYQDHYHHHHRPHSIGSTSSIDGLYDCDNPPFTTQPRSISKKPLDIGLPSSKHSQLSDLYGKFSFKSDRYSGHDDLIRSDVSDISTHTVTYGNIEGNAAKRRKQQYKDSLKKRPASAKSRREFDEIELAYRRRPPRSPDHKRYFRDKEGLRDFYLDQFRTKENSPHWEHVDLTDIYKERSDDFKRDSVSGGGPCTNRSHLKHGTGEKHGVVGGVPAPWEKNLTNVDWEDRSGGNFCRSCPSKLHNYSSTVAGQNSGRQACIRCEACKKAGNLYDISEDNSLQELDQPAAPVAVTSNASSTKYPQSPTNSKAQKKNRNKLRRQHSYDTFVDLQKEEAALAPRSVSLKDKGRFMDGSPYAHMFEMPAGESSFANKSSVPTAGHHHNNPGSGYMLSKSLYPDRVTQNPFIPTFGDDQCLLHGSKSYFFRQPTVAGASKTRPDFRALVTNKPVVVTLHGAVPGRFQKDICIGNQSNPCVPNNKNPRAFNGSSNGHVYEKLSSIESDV

[3] = molecular target: NMDA receptor, [^3H]MK-801 binding; details: read-out: IC50, inhibition of [^3H]MK-801 binding to rat brain membranes; 5, 4 and 3 methylene groups between the oxygens; cited from earlier work
[4] = molecular target: T1, NMDA receptor (NR), [^3H]ifenprodil binding site; experiment: biochemical
NRs in native membranes = details: native membranes from rat frontoparietal cortex and hippocampus; cited from earlier work
[5] = read-out: [^3H]MK-801 IC50 ± SD (n), 30 µM spm
[6] = [^3H]MK-801 IC50 ± SD (n), 30 µM spm

T1 sequence (Q00960 27-1482, other chains not shown): as above

Compound | [^3H]MK-801 Ratio IC50 (30 µM spm)/IC50 (no spm) [2] | also measured
1,5-Bis(1-amidino-3-methoxyphenylamino)pentane dihydrochloride [compound 9] |  | IC50 [1]: 4.54 µM
1,5-Bis[(1-amidinophenyl)N-methylamino]-3-oxapentane [compound 11] | 15.2 ± 2.2 (3) | IC50 [1]: 21.9 ± 5.2 µM; IC50 [2, 5]: 12.5 ± 1.8 µM
N=C(N)NCCCCNC(=N)N [Arcaine, reference compound] | 33.6 (2) | 
N=C(N)c1ccc(OCCCCCOc2ccc(C(=N)N)cc2)cc1 [compound 1, Pentamidine, reference compound] | 9.1 ± 2.5 (7) | IC50 [3]: 2.59 µM; IC50 [4]: 32.5 µM; IC50 [2, 6]: 24.9 ± 5.7 µM
N=C(NC1CC1)c1ccc(N2CCN(c3ccc(C(=N)NC4CC4)cc3)CC2)cc1 [compound 18] | 21.8 (2) | 
N=C(NCCCO)c1ccc(N2CCCN(c3ccc(/C(N)=N/CCCO)cc3)CC2)cc1 [compound 31] | 9.72 (2) | 
c1cc(N2CCCN(c3ccc(C4=NCCN4)cc3)CC2)ccc1C1=NCCN1 [compound 32] | 30.1 (2) | 
CCN(CCN(CC)c1ccc(C(=N)N)cc1)c1ccc(C(=N)N)cc1 [compound 38] | 11.8 (2) | 
N=C(N)c1ccc(NCCCNc2ccc(C(=N)N)cc2)cc1 [compound 39] | 17.0 (2) | 
N=C(N)c1ccc(NCCCCNc2ccc(C(=N)N)cc2)cc1 [compound 41] | 17.2 (2) | 
N=C(N)c1ccc(NCCCCCCCNc2ccc(C(=N)N)cc2)cc1 [compound 43, 1,7-Bis[(1-amidinophenyl)amino]heptane dihydrochloride] | 5.37 (2) | 
N=C(N)c1ccc(NCCCCCCCCNc2ccc(C(=N)N)cc2)cc1 [compound 44] | 4.37 (2) | 
N=C(N)c1ccc(NC(=O)CCCC(=O)Nc2ccc(C(=N)N)cc2)cc1 [compound 45] |  | IC50 [4]: 65.6 µM; Fold weaker than pentamidine ([2]; no spermine): 100 fold
N=C(N)c1ccc(C(=O)NCCCCCCNC(=O)c2ccc(C(=N)N)cc2)cc1 [compound 55] | 4.59 (2) | 
N=C(N)c1ccc(OCc2ccccc2COc2ccc(C(=N)N)cc2)cc1 [compound 57] |  | IC50 [4]: 2.05 µM
N=C(N)c1ccc(OCc2ccc(COc3ccc(C(=N)N)cc3)cc2)cc1 [compound 59] |  | IC50 [4]: 16.8 µM
N=C(N)c1ccc(OC(=O)c2ccc(C(=O)Oc3ccc(C(=N)N)cc3)cc2)cc1 [compound 60] | 3.98 (2) | IC50 [4]: 38.6 µM
N=C(N)c1ccc(NC(=O)c2cccc(C(=O)Nc3ccc(C(=N)N)cc3)n2)cc1 [compound 65] | 1.22 (2) | 
N=C(N)c1ccc(C(=O)Nc2cccc(NC(=O)c3ccc(C(=N)N)cc3)n2)cc1 [compound 67] | 1.85 (2) | 
CC/N=C(\N)c1ccc(-c2ccc(-c3ccc(/C(N)=N/CC)cc3)o2)cc1 [compound 70] | 2.56 (2) | 
N=C(N)c1ccc(-c2ccc(-c3ccc(C(=N)N)cc3)c(F)c2)cc1 [compound 73] | 4.63 (2) | 
N=C(N)c1ccc(-c2ccc(-c3nc4ccc(C(=N)N)cc4[nH]3)s2)cc1 [compound 74] | 4.14 (2) | 
N=C(N)c1ccc(-c2ccc(-c3ccc(-c4ccc(C(=N)N)o4)s3)s2)o1 [compound 75] | 4.26 (2) | 
CC(C(O)c1ccc(O)cc1)N1CCC(Cc2ccccc2)CC1 (stereo not drawn) [ifenprodil] |  | Share of NRs blocked with high affinity (NRs in native membranes): 23%
N,N-Bis[2-(1-amidino-3-methoxyphenoxy)ethyl]-4-methylbenzenesulfonamide dihydrochloride [compound 15] |  | IC50 [1]: 0.84 µM; IC50 [2, 5]: 28.7 ± 4.4 µM

More lines, main results first:

[^3H]MK-801 Ratio IC50 (30 µM spm)/IC50 (no spm) [2] | Compound | also measured
20.2 ± 6.1 (3) | N=C(N)c1ccc(SCCOCCSc2ccc(C(=N)N)cc2)cc1 [compound 5] | IC50 [2, 6]: 23.8 ± 2.7 µM
26.2 (2) | N=C(N)c1ccc(N2CCN(c3ccc(C(=N)N)cc3)CC2)cc1 [compound 16] | 
21.8 (2) | CCCNC(=N)c1ccc(N2CCN(c3ccc(C(=N)NCCC)cc3)CC2)cc1 [compound 19] | 
16.8 (2) | CC(C)(C)/N=C(\N)c1ccc(N2CCCN(c3ccc(/C(N)=N/C(C)(C)C)cc3)CC2)cc1 [compound 27] | 
30.2 (2) | CN(CCNc1ccc(C(=N)N)cc1)c1ccc(C(=N)N)cc1 [compound 35] | 
20.9 (2) | CN(CCN(C)c1ccc(C(=N)N)cc1)c1ccc(C(=N)N)cc1 [compound 37] | 
5.26 (2) | N=C(N)c1ccc(NCCCCCCNc2ccc(C(=N)N)cc2)cc1 [compound 42] | 
3.46 (2) | N=C(N)c1ccc(NC(=O)CCCCC(=O)Nc2ccc(C(=N)N)cc2)cc1 [compound 46] | 
0.97 (2) | N=C(N)c1ccc(NC(=O)c2cccc(C(=O)Nc3ccc(C(=N)N)cc3)c2)cc1 [compound 61] | 
0.96 (2) | N=C(N)c1ccc(NC(=O)c2ccc(C(=O)Nc3ccc(C(=N)N)cc3)cc2)cc1 [compound 62] | 
1.50 (2) | N=C(N)c1ccc(-c2ccc(-c3ccc(C(=N)N)s3)s2)s1 [compound 71, 5,5″-Diamidino-2,2′:5′,2″-terthiophene dihydrochloride] | 
